From ChEMBL document CHEMBL1201862, “PubChem BioAssay data set” (2004)
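Assay format: 96-well plates, 48-hour exposure. GI50: concentration for 50% inhibition of growth.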 Calls of active or inactive are those of the source. Cut-off read from the data, not from the text of the source: active = GI50 up to about 1.1 µM and inactive = higher.

What was measured:
Assay in all cases: NCI anticancer screen, dose series, 48 h
HCT-116 = tested on: HCT-116
MDA-MB-435 = tested on: MDA-MB-435
SK-MEL-5 = tested on: SK-MEL-5
HT-29 = tested on: HT-29
SN12C = tested on: SN12C
CAKI-1 = tested on: CAKI-1
OVCAR-5 = tested on: OVCAR-5
MDA-MB-231 = tested on: MDA-MB-231
A549 = tested on: A549
SW-620 = tested on: SW-620
SF-268 = tested on: SF-268
RPMI-8226 = tested on: RPMI-8226
MCF7 = tested on: MCF7
NCI-H23 = tested on: NCI-H23
SF-295 = tested on: SF-295
UO-31 = tested on: UO-31
786-0 = tested on: 786-0
NCI-H226 = tested on: NCI-H226
SK-OV-3 = tested on: SK-OV-3
RXF 393 = tested on: RXF 393

Measured: GI50

O=C(/C=C\c1ccccc1)Oc1ccc(/C=C2\CCC/C(=C\c3ccc(OC(=O)/C=C\c4ccccc4)cc3)C2=O)cc1
inactive: HCT-116 > 100 µM | MDA-MB-435 > 100 µM | SK-MEL-5 > 100 µM | HT-29 > 100 µM | SN12C > 100 µM | CAKI-1 > 100 µM | OVCAR-5 > 100 µM | MDA-MB-231 > 100 µM | A549 > 100 µM | SW-620 > 100 µM | SF-268 > 100 µM | RPMI-8226 > 100 µM | MCF7 > 100 µM | NCI-H23 > 100 µM | SF-295 > 100 µM | UO-31 > 100 µM | 786-0 > 100 µM

COc1cc(C2SC(=N)Nc3c2c(C)nn3C(=O)Cc2ccccc2)ccc1O (configuration not stated)
inactive: HCT-116 > 100 µM | MDA-MB-435 > 100 µM | SK-MEL-5 > 100 µM | HT-29 > 100 µM | SN12C > 100 µM | CAKI-1 > 100 µM | NCI-H226 > 100 µM | MDA-MB-231 > 100 µM | A549 > 100 µM | SW-620 > 100 µM | SF-268 > 100 µM | SK-OV-3 > 100 µM | RPMI-8226 > 100 µM | MCF7 > 100 µM | NCI-H23 > 100 µM | SF-295 > 100 µM | UO-31 > 100 µM | 786-0 > 100 µM

COc1cc(S(=O)(=O)Nc2ccc(-c3csc(/N=C\c4cccs4)n3)cc2)ccc1Cl
inactive: HCT-116 37.4 µM | MDA-MB-435 29.3 µM | SK-MEL-5 42.3 µM | HT-29 57.1 µM | SN12C 89.5 µM | CAKI-1 > 100 µM | OVCAR-5 > 100 µM | NCI-H226 57.4 µM | MDA-MB-231 87.7 µM | A549 78.7 µM | SW-620 34.3 µM | SF-268 33.7 µM | SK-OV-3 > 100 µM | RPMI-8226 29 µM | MCF7 16.5 µM | NCI-H23 53.1 µM | SF-295 > 100 µM | UO-31 45.5 µM | 786-0 59.3 µM

COc1ccc(OC)c(N(CN2C(=O)CCC2C(=O)O)C(C)=O)c1 (configuration not stated)
inactive: HCT-116 > 100 µM | MDA-MB-435 > 100 µM | SK-MEL-5 > 100 µM | HT-29 > 100 µM | SN12C > 100 µM | CAKI-1 > 100 µM | OVCAR-5 > 100 µM | NCI-H226 > 100 µM | MDA-MB-231 > 100 µM | A549 > 100 µM | SW-620 > 100 µM | SF-268 > 100 µM | SK-OV-3 > 100 µM | RPMI-8226 > 100 µM | MCF7 > 100 µM | NCI-H23 > 100 µM | SF-295 > 100 µM | UO-31 > 100 µM | 786-0 > 100 µM

CC(=O)NN/C=N/C(C#N)=C(\N)C#N
inactive: HCT-116 > 100 µM | MDA-MB-435 > 100 µM | SK-MEL-5 > 100 µM | HT-29 > 100 µM | SN12C > 100 µM | CAKI-1 > 100 µM | OVCAR-5 > 100 µM | NCI-H226 > 100 µM | MDA-MB-231 > 100 µM | A549 > 100 µM | SW-620 > 100 µM | SF-268 > 100 µM | SK-OV-3 > 100 µM | RPMI-8226 > 100 µM | MCF7 > 100 µM | NCI-H23 > 100 µM | SF-295 > 100 µM | UO-31 > 100 µM | 786-0 > 100 µM

Cc1cccc(C)c1NC(=O)/C=C/c1ccccc1
inactive: HCT-116 > 100 µM | MDA-MB-435 > 100 µM | SK-MEL-5 > 100 µM | HT-29 > 100 µM | SN12C > 100 µM | CAKI-1 > 100 µM | OVCAR-5 > 100 µM | NCI-H226 20.3 µM | MDA-MB-231 > 100 µM | A549 > 100 µM | SW-620 > 100 µM | SF-268 > 100 µM | SK-OV-3 > 100 µM | RPMI-8226 > 100 µM | MCF7 > 100 µM | NCI-H23 > 100 µM | SF-295 88.5 µM | 786-0 > 100 µM

Cc1c2n(c3ccccc13)S(=O)(=O)c1ccccc1-2
inactive: HCT-116 21.2 µM | MDA-MB-435 > 100 µM | SK-MEL-5 72.1 µM | HT-29 15.4 µM | CAKI-1 12.3 µM | OVCAR-5 88.3 µM | NCI-H226 77.3 µM | MDA-MB-231 17.8 µM | A549 23.4 µM | SW-620 > 100 µM | SK-OV-3 14.6 µM | RPMI-8226 > 100 µM | MCF7 28.9 µM | NCI-H23 23.2 µM | SF-295 17.3 µM | UO-31 18.4 µM | 786-0 10.1 µM

CCN(CC)P1(=S)Oc2ccc3ccccc3c2-c2c(ccc3ccccc23)O1
inactive: HCT-116 83 µM | MDA-MB-435 > 100 µM | SK-MEL-5 > 100 µM | HT-29 18.5 µM | SN12C > 100 µM | CAKI-1 > 100 µM | OVCAR-5 > 100 µM | NCI-H226 > 100 µM | MDA-MB-231 > 100 µM | A549 > 100 µM | SW-620 > 100 µM | SK-OV-3 > 100 µM | RPMI-8226 > 100 µM | MCF7 > 100 µM | NCI-H23 > 100 µM | SF-295 > 100 µM | UO-31 > 100 µM | 786-0 > 100 µM

O=C(Nc1ccccc1)c1cc2ccccc2c(/N=N/c2ccc([N+](=O)[O-])cc2)c1O
inactive: HCT-116 > 100 µM | MDA-MB-435 > 100 µM | SK-MEL-5 > 100 µM | HT-29 > 100 µM | RXF 393 82.4 µM | SN12C > 100 µM | CAKI-1 > 100 µM | OVCAR-5 > 100 µM | NCI-H226 > 100 µM | MDA-MB-231 71.9 µM | A549 > 100 µM | SW-620 > 100 µM | SF-268 > 100 µM | SK-OV-3 81.8 µM | RPMI-8226 25.5 µM | NCI-H23 33.2 µM | SF-295 38.7 µM | UO-31 > 100 µM | 786-0 86.3 µM

CC(C)CC(NP(=O)(O)OC1OC(C)C(O)C(O)C1O)C(=O)NC(Cc1c[nH]c2ccccc12)C(=O)O (configuration not stated)
inactive: HCT-116 > 100 µM | MDA-MB-435 > 100 µM | SK-MEL-5 > 100 µM | HT-29 > 100 µM | SN12C > 100 µM | CAKI-1 > 100 µM | OVCAR-5 > 100 µM | NCI-H226 > 100 µM | MDA-MB-231 > 100 µM | A549 > 100 µM | SW-620 > 100 µM | SF-268 > 100 µM | SK-OV-3 > 100 µM | RPMI-8226 > 100 µM | MCF7 > 100 µM | NCI-H23 > 100 µM | SF-295 > 100 µM | UO-31 > 100 µM | 786-0 > 100 µM

COc1ccc(-c2oc3c(OC)c(OC)c(OC)c(OC)c3c(=O)c2OC)cc1OC [3,5,6,7,8,3',4'-HEPTAMETHOXYFLAVONE]
inactive: HCT-116 47.4 µM | MDA-MB-435 15.8 µM | SK-MEL-5 19.3 µM | HT-29 26.5 µM | SN12C 93.3 µM | CAKI-1 53.8 µM | OVCAR-5 > 100 µM | NCI-H226 48.9 µM | MDA-MB-231 59.7 µM | A549 70.6 µM | SW-620 32.8 µM | SF-268 5.45 µM | SK-OV-3 > 100 µM | RPMI-8226 12.4 µM | MCF7 21.3 µM | NCI-H23 72.6 µM | SF-295 32 µM | UO-31 23.6 µM | 786-0 24.5 µM
